Assays:
MOLT 4 = assay: MTT cytotoxicity assay, MOLT 4 leukemia; format: cell-based; settings: Homo sapiens; for IC50: 24 h, Molt 4 Leukemia, read-out: ED50 values of cytotoxicity; for cytotoxicity at 1000 µM / cytotoxicity at 2500 µM / cytotoxicity at 4000 µM / cytotoxicity at 5000 µM / cytotoxicity at 10000 µM: MOLT 4 Leukemia, read-out: Percent cytotoxicity; for cytotoxicity at 1000 µM: 1.0 mM; for cytotoxicity at 2500 µM: 2.5 mM; for cytotoxicity at 4000 µM: 4 mM; for cytotoxicity at 5000 µM: 5 mM; for cytotoxicity at 10000 µM: 10 mM
Experimental: (§1) Briefly, a […] MTT cytotoxicity assay was performed, which is based on the principle of uptake of MTT (3-(4,5-dimethylthiazol-2-yl)-2,5-diphenyl tetrazolium bromide), a tetrazolium salt, by the metabolically active cells where it is metabolized by active mitochondria into a blue colored formazan product that is read spectrophoto-metrically. MTT was dissolved in phosphate buffered saline with a pH of 7.4 to obtain an MTT concentration of 5 mg/ml; the resulting mixture was filtered through a 0.22 micron filter to sterilize and remove a small amount of insoluble residue. For each type of tumor cell, 20,000 to 50,000 cells were seeded in a 96-well culture plate and incubated with the combination in a CO2 incubator for 24 hours. […] The assay was terminated after 24 hours by adding 100 ug (20 ul) of MTT to each well, then incubating for additional one hour, and finally adding 50 ul of 10% SDS-0.01N HCl to each well to lyse the cells and dissolve formazan. After incubating for one hour, the plate was read spectrophotometrically at 540 nm and the percentage cytotoxicity calculated.

293 = assay: MTT cytotoxicity assay, 293 kidney; format: cell-based; settings: Homo sapiens, HEK293, 24 h, read-out: ED50 values of cytotoxicity
Experimental: as §1

PA 1 = assay: MTT cytotoxicity assay, PA 1 ovary; format: cell-based; settings: Homo sapiens; for IC50: 24 h, PA 1 Ovarian, read-out: ED50 values of cytotoxicity; for cytotoxicity at 2500 µM: 2.5 mM; for cytotoxicity at 4000 µM: 4 mM; for cytotoxicity at 5000 µM: 5 mM; for cytotoxicity at 10000 µM: 10 mM
Experimental: as §1

Miapaca2 = assay: MTT cytotoxicity assay, Miapaca2 pancreas; format: cell-based; settings: Homo sapiens; for cytotoxicity at 1000 µM: MIA PaCa-2, 1.0 mM; for cytotoxicity at 1000 µM / cytotoxicity at 2500 µM / cytotoxicity at 4000 µM / cytotoxicity at 5000 µM / cytotoxicity at 10000 µM: read-out: Percent cytotoxicity; for cytotoxicity at 2500 µM: MIA PaCa-2, 2.5 mM; for cytotoxicity at 4000 µM: MIA PaCa-2, 4 mM; for cytotoxicity at 5000 µM: MIA PaCa-2, 5 mM; for cytotoxicity at 10000 µM: MIA PaCa-2, 10 mM; for IC50: MIA PaCa-2, 24 h, read-out: ED50 values of cytotoxicity
Experimental: as §1

L132 = assay: MTT cytotoxicity assay, L132 lung; format: cell-based; settings: Homo sapiens; for cytotoxicity at 1000 µM: 1.0 mM; for cytotoxicity at 1000 µM / cytotoxicity at 2500 µM / cytotoxicity at 4000 µM / cytotoxicity at 5000 µM / cytotoxicity at 10000 µM: read-out: Percent cytotoxicity; for cytotoxicity at 2500 µM: 2.5 mM; for cytotoxicity at 4000 µM: 4 mM; for cytotoxicity at 5000 µM: 5 mM; for cytotoxicity at 10000 µM: 10 mM; for IC50: 24 h, read-out: ED50 values of cytotoxicity
Experimental: as §1

PTC = assay: MTT cytotoxicity assay, PTC colon; format: cell-based; settings: Homo sapiens; for cytotoxicity at 1000 µM: 1.0 mM; for cytotoxicity at 1000 µM / cytotoxicity at 2500 µM / cytotoxicity at 4000 µM / cytotoxicity at 5000 µM / cytotoxicity at 10000 µM: read-out: Percent cytotoxicity; for cytotoxicity at 2500 µM: 2.5 mM; for cytotoxicity at 4000 µM: 4 mM; for cytotoxicity at 5000 µM: 5 mM; for cytotoxicity at 10000 µM: 10 mM; for IC50: 24 h, read-out: ED50 values of cytotoxicity
Experimental: as §1

U87MG = assay: MTT cytotoxicity assay, U87MG glioblastoma; format: cell-based; settings: Homo sapiens, U-87 MG, 24 h, read-out: ED50 values of cytotoxicity
Experimental: as §1

MCF7 = assay: MTT cytotoxicity assay, MCF7 breast; format: cell-based; settings: Homo sapiens; for IC50: MCF7, 24 h, MCF 7 Breast, read-out: ED50 values of cytotoxicity; for cytotoxicity at 1000 µM / cytotoxicity at 2500 µM / cytotoxicity at 4000 µM / cytotoxicity at 5000 µM / cytotoxicity at 10000 µM: MCF7 breast, read-out: Percent cytotoxicity; for cytotoxicity at 1000 µM: 1.0 mM; for cytotoxicity at 2500 µM: 2.5 mM; for cytotoxicity at 4000 µM: 4 mM; for cytotoxicity at 5000 µM: 5 mM; for cytotoxicity at 10000 µM: 10 mM
Experimental: as §1

INT 407 = assay: MTT cytotoxicity assay, INT 407 intestine; format: cell-based; settings: Homo sapiens, 24 h, read-out: ED50 values of cytotoxicity
Experimental: as §1

KB = assay: MTT cytotoxicity assay, KB oral; format: cell-based; settings: Homo sapiens, 24 h, read-out: ED50 values of cytotoxicity
Experimental: as §1

Swiss albino mice = settings: both, mouse, in vivo, po, 15 days
Experimental: Acute toxicity studies were performed using the oral route of administration.
A batch of 5 female and 5 male mice each was administered the test substance by oral route. […] Another batch of 5 female and 5 male served as control.
Observations were made three times on the day of dosing and twice daily thereafter for the remainder of 14 days or until reversible toxic signs or symptoms subsided. All gross visible toxic signs and symptoms were recorded. Body weights were recorded prior to dosing and weekly thereafter.

DU145 = assay: MTT cytotoxicity assay, DU145 prostate; format: cell-based; settings: Homo sapiens; for cytotoxicity at 1000 µM: DU-145, 1.0 mM; for cytotoxicity at 1000 µM / cytotoxicity at 2500 µM / cytotoxicity at 4000 µM / cytotoxicity at 5000 µM / cytotoxicity at 10000 µM: read-out: Percent cytotoxicity; for cytotoxicity at 2500 µM: DU-145, 2.5 mM; for cytotoxicity at 4000 µM: DU-145, 4 mM; for cytotoxicity at 5000 µM: DU-145, 5 mM; for cytotoxicity at 10000 µM: DU-145, 10 mM; for IC50: DU-145, 24 h, read-out: ED50 values of cytotoxicity
Experimental: as §1

Hep2 = assay: MTT cytotoxicity assay, Hep2 larynx; format: cell-based; settings: Homo sapiens, HEp-2, 24 h, read-out: ED50 values of cytotoxicity
Experimental: as §1

[1] = PA 1 Ovary, read-out: Percent cytotoxicity

CCCCOC(=O)C1CCC(=O)N1C(O)C(C)=O (centres unmarked) [MGC-2, N-(1-hydroxy-2-ketopropyl)-butylpyroglutamate]
IC50 (MOLT 4): < 1000 µM
cytotoxicity at 1000 µM (MOLT 4): 75.9%
cytotoxicity at 2500 µM (MOLT 4): 85.9 ± 6.3%
cytotoxicity at 4000 µM (MOLT 4): 87.8 ± 5%
cytotoxicity at 5000 µM (MOLT 4): 88.2 ± 5.9%
cytotoxicity at 10000 µM (MOLT 4): 90.2 ± 7.2%
IC50 293: 2000 ± 800 µM
IC50 (PA 1): 1200 ± 200 µM
cytotoxicity at 2500 µM (PA 1; [1]): 57.9 ± 4.5%
cytotoxicity at 4000 µM (PA 1; [1]): 67.9 ± 5.4%
cytotoxicity at 5000 µM (PA 1; [1]): 84.9 ± 4.8%
cytotoxicity at 10000 µM (PA 1; [1]): 87.9 ± 6.3%
cytotoxicity at 1000 µM (Miapaca2): 34.8%
cytotoxicity at 2500 µM (Miapaca2): 64.9 ± 5.9%
cytotoxicity at 4000 µM (Miapaca2): 74.9 ± 3.8%
cytotoxicity at 5000 µM (Miapaca2): 76.9 ± 4%
cytotoxicity at 10000 µM (Miapaca2): 84.9 ± 6.3%
IC50 (Miapaca2): 1700 ± 600 µM
cytotoxicity at 1000 µM (L132): 34.8%
cytotoxicity at 2500 µM (L132): 58.5 ± 3.6%
cytotoxicity at 4000 µM (L132): 62.9 ± 2.9%
cytotoxicity at 5000 µM (L132): 87.8 ± 5.8%
cytotoxicity at 10000 µM (L132): 88.6 ± 3%
IC50 (L132): 1900 ± 800 µM
cytotoxicity at 1000 µM (PTC): 45.8%
cytotoxicity at 2500 µM (PTC): 68.9 ± 5.3%
cytotoxicity at 4000 µM (PTC): 85.9 ± 6.2%
cytotoxicity at 5000 µM (PTC): 88.8 ± 5.3%
cytotoxicity at 10000 µM (PTC): 86.9 ± 5%
IC50 (PTC): 1600 ± 100 µM
IC50 (U87MG): 3150 ± 1100 µM
IC50 (MCF7): 2500 ± 400 µM
cytotoxicity at 1000 µM (MCF7): 34.7%
cytotoxicity at 2500 µM (MCF7): 50.6 ± 4.1%
cytotoxicity at 4000 µM (MCF7): 57.9 ± 4.8%
cytotoxicity at 5000 µM (MCF7): 67.9 ± 4%
cytotoxicity at 10000 µM (MCF7): 78.9 ± 5.2%
IC50 (INT 407): 2700 ± 800 µM
IC50 (KB): 2600 ± 500 µM
safe dose (Swiss albino mice): 75 mg
cytotoxicity at 1000 µM (DU145): 43.9%
cytotoxicity at 2500 µM (DU145): 53.9 ± 3.8%
cytotoxicity at 4000 µM (DU145): 58.9 ± 4.3%
cytotoxicity at 5000 µM (DU145): 67.9 ± 5.2%
cytotoxicity at 10000 µM (DU145): 86.9 ± 6.9%
IC50 (DU145): 1600 ± 100 µM
IC50 (Hep2): 2000 ± 300 µM

CCOC(=O)C1CCC(=O)N1C(O)C(C)=O (centres unmarked) [MGC-7, N-(1-hydroxy-2-ketopropyl)-ethylpyroglutamate]
IC50 (MOLT 4): 1500 ± 200 µM
cytotoxicity at 1000 µM (MOLT 4): 39.4 ± 2.7%
cytotoxicity at 2500 µM (MOLT 4): 58.5 ± 3.8%
cytotoxicity at 4000 µM (MOLT 4): 59.1 ± 4.3%
cytotoxicity at 5000 µM (MOLT 4): 64.3 ± 4.9%
cytotoxicity at 10000 µM (MOLT 4): 73.4 ± 2%
IC50 293: 3100 ± 1300 µM
IC50 (PA 1): 1200 ± 200 µM
cytotoxicity at 1000 µM (PA 1; PA 1 Ovary, 1.0 mM, read-out: Percent cytotoxicity): 45.6 ± 1.9%
cytotoxicity at 2500 µM (PA 1; [1]): 58.4 ± 4.7%
cytotoxicity at 4000 µM (PA 1; [1]): 65.5 ± 3.9%
cytotoxicity at 5000 µM (PA 1; [1]): 79.9 ± 5.2%
cytotoxicity at 10000 µM (PA 1; [1]): 84.9 ± 5.4%
cytotoxicity at 1000 µM (Miapaca2): 0%
cytotoxicity at 2500 µM (Miapaca2): 28 ± 1.5%
cytotoxicity at 4000 µM (Miapaca2): 89 ± 2.3%
cytotoxicity at 5000 µM (Miapaca2): 88 ± 4.1%
cytotoxicity at 10000 µM (Miapaca2): 85 ± 4.1%
IC50 (Miapaca2): 2400 ± 1000 µM
cytotoxicity at 1000 µM (L132): 0%
cytotoxicity at 2500 µM (L132): 0%
cytotoxicity at 4000 µM (L132): 0%
cytotoxicity at 5000 µM (L132): 0%
cytotoxicity at 10000 µM (L132): 0%
IC50 (L132): > 5000 µM
cytotoxicity at 1000 µM (PTC): 34.3 ± 1.9%
cytotoxicity at 2500 µM (PTC): 54.3 ± 4.9%
cytotoxicity at 4000 µM (PTC): 65.9 ± 4.8%
cytotoxicity at 5000 µM (PTC): 78.2 ± 3.9%
cytotoxicity at 10000 µM (PTC): 82.2 ± 6.1%
IC50 (PTC): 2400 ± 500 µM
IC50 (U87MG): 1840 ± 600 µM
IC50 (MCF7): 2800 ± 1100 µM
cytotoxicity at 1000 µM (MCF7): 7 ± 1.3%
cytotoxicity at 2500 µM (MCF7): 10 ± 2.5%
cytotoxicity at 4000 µM (MCF7): 69 ± 3.2%
cytotoxicity at 5000 µM (MCF7): 85 ± 4.5%
cytotoxicity at 10000 µM (MCF7): 83 ± 4.5%
IC50 (INT 407): 2700 ± 1200 µM
IC50 (KB): 1850 ± 600 µM
safe dose (Swiss albino mice): 100 mg
cytotoxicity at 1000 µM (DU145): 56 ± 5.9%
cytotoxicity at 2500 µM (DU145): 65 ± 2.9%
cytotoxicity at 4000 µM (DU145): 78.4 ± 6.9%
cytotoxicity at 5000 µM (DU145): 83 ± 4.9%
cytotoxicity at 10000 µM (DU145): 89 ± 6.1%
IC50 (DU145): 850 ± 300 µM
IC50 (Hep2): 2500 ± 1100 µM
